Experimental findings from ChEMBL document CHEMBL3217745, “Identification of false positives in HTS hits to lead: The application of Bayesian models in HTS triage to rapidly deliver a series of selective TRPV4 antagonists” (Medchemcomm, 2013) are described below.

In data set [1] the target is T1, Transient receptor potential cation channel subfamily V member 4 (Homo sapiens, UniProt Q9HBA0). The data set is described as follows: Antagonist activity at human TRPV4 expressed in CHOK1 cells assessed as inhibition of PF-04674114/GSK1016790A-induced changes in intracellular calcium level measured for 5 mins by FLIPR assay. The data set is classed as cell-based, CHO-K1. In general terms: A change in cytosolic calcium serves as a functional read-out for many receptors and channels.
T1 sequence (Q9HBA0 whole entry): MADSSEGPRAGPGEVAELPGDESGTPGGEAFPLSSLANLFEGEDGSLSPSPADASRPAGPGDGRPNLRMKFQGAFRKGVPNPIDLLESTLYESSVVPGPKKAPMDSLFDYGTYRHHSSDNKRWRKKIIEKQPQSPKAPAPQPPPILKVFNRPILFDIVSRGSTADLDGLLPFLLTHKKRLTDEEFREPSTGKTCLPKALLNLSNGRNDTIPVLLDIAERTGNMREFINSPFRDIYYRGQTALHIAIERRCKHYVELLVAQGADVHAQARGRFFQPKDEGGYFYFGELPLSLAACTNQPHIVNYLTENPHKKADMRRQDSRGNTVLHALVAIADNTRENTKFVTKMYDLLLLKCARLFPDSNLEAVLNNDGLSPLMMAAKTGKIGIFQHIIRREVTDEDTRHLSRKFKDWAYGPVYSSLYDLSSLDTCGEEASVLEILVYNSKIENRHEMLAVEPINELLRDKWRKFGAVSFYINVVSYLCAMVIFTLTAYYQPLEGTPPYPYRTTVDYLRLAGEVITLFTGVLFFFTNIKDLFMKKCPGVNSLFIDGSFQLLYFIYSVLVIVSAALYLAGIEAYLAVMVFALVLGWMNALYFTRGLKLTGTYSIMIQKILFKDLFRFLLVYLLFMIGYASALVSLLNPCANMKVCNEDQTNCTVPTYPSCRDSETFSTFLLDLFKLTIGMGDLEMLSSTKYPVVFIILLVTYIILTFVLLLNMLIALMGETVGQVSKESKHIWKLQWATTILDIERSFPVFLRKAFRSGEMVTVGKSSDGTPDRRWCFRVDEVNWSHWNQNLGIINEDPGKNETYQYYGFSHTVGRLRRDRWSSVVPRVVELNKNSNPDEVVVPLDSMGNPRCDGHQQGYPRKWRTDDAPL

Data set [2] concerns the target T2, Transient receptor potential cation channel subfamily A member 1 (Homo sapiens, UniProt O75762). The data set is described as follows: Antagonist activity at human TRPA1.
In data set [3] the target is T1, Transient receptor potential cation channel subfamily V member 4. The data set is described as follows: Agonist activity at human TRPV4 expressed in CHOK1 cells assessed as changes in intracellular calcium level measured for 5 mins by FLIPR assay. The class given is cell-based, CHO-K1.
For data set [4], the target named is T3, Transient receptor potential cation channel subfamily V member 4 (Rattus norvegicus, UniProt Q9ERZ8). The data set is described as follows: Antagonist activity at rat TRPV4 expressed in CHOK1 cells assessed as inhibition of PF-04674114/GSK1016790A-induced changes in intracellular calcium level measured for 5 mins by FLIPR assay. The data set is classed as cell-based, CHO-K1.
T3 sequence (Q9ERZ8 whole entry): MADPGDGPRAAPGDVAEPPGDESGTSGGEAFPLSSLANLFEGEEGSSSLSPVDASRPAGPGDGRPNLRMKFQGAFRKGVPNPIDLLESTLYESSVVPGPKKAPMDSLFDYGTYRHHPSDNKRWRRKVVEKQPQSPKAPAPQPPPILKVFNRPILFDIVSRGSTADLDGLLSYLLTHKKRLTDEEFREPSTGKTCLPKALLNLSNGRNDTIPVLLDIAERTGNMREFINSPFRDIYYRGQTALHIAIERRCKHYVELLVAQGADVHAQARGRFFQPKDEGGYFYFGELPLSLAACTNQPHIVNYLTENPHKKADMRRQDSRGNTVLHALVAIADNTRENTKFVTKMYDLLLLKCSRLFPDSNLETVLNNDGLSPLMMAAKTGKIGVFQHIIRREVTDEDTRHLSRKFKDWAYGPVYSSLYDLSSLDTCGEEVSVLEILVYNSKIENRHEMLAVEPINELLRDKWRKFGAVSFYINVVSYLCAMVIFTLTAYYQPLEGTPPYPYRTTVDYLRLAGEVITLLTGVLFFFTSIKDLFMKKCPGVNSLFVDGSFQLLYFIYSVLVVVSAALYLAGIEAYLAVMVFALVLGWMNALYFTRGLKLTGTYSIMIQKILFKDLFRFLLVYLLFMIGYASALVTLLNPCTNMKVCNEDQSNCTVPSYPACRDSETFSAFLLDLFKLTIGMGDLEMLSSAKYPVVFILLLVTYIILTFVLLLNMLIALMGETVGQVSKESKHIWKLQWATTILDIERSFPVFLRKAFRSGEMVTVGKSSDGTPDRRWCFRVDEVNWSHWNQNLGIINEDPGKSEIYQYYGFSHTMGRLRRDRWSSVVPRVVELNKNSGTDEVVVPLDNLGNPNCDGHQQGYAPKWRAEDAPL

In data set [5] the target is T2, Transient receptor potential cation channel subfamily A member 1. The data set is described as follows: Agonist activity at human TRPA1.
For data set [6], the target named is T4, Transient receptor potential cation channel subfamily V member 1 (Homo sapiens, UniProt Q8NER1). The data set is described as follows: Agonist activity at human TRPV1.
T4 sequence (Q8NER1 whole entry): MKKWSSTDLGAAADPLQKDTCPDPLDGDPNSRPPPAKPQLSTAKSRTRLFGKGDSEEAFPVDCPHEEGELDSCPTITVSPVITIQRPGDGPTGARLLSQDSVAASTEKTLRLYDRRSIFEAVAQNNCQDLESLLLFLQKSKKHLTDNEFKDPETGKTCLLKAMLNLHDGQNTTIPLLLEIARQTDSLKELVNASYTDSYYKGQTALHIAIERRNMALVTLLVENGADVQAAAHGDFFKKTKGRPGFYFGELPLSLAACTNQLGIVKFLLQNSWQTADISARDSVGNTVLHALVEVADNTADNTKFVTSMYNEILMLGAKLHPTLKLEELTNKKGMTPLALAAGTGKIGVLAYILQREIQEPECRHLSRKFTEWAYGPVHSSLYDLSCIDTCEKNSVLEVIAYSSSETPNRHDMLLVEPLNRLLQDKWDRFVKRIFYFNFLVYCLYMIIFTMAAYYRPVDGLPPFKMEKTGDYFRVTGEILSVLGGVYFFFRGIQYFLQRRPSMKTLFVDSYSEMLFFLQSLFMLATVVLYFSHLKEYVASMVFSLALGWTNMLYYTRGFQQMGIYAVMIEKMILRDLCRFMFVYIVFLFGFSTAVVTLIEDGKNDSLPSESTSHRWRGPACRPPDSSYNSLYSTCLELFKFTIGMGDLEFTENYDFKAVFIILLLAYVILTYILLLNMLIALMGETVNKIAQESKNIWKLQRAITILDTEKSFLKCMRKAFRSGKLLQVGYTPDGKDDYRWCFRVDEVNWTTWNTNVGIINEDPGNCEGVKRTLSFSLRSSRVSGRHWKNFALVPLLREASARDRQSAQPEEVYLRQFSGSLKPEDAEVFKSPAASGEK
Data set [7] addresses T3, Transient receptor potential cation channel subfamily V member 4. The data set is described as follows: Agonist activity at rat TRPV4 expressed in CHOK1 cells assessed as changes in intracellular calcium level measured for 5 mins by FLIPR assay. The data set is classed as cell-based, CHO-K1.
The target of data set [8] is Transient receptor potential cation channel subfamily M member 8 (Homo sapiens, UniProt Q7Z2W7). The data set is described as follows: Antagonist activity at human TRPM8.
Chain of Transient receptor potential cation channel subfamily M member 8 (Q7Z2W7 whole entry): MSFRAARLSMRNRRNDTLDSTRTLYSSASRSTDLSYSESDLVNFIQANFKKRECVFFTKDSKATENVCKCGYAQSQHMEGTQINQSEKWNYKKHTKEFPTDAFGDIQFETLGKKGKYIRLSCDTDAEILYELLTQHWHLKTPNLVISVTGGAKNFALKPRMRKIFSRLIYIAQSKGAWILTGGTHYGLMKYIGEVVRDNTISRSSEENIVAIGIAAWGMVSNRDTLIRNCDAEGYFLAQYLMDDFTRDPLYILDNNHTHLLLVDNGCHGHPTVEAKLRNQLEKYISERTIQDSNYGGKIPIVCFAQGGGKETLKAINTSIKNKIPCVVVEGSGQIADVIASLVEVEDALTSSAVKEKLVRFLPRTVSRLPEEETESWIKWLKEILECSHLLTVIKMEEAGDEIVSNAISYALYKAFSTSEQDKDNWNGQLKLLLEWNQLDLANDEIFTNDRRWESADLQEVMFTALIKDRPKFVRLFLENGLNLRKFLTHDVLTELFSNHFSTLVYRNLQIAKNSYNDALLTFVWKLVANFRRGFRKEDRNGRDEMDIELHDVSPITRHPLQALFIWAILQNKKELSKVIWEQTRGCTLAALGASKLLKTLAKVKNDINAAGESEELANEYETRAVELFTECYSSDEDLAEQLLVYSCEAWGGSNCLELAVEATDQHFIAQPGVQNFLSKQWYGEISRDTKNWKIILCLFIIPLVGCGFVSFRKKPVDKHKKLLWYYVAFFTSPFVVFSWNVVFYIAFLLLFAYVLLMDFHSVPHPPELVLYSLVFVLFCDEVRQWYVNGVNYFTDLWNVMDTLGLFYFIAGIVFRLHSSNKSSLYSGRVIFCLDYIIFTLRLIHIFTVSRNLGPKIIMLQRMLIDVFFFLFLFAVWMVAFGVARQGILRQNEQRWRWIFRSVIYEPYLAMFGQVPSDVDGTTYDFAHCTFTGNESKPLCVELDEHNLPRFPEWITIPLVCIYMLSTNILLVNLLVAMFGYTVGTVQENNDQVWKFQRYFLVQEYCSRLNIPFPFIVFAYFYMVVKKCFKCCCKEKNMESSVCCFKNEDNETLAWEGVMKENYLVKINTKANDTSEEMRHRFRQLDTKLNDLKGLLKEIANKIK
The target in data set [9] is T4, Transient receptor potential cation channel subfamily V member 1. The data set is described as follows: Antagonist activity at human TRPV1.
Data set [10] in a line: Volume of distribution at steady state in Sprague-Dawley rat at 1 mg/kg, iv. The class given is ADME, organism-based. On the set-up: dose 1 mg/kg, route intravenous. To be noted: in vivo, read-out: Vdss.
Data set [11] is described as follows: Clearance in human liver microsomes. The class given is ADME. To be noted: read-out: CLH.
Data set [12] relates to Rattus norvegicus. The data set is described as follows: fCmax in Sprague-Dawley rat at 2 mg/kg, po. The class given is ADME, organism-based. On the set-up: dose 2 mg/kg, route oral. To be noted: in vivo.
Data set [13] can be described thus: Oral bioavailability in Sprague-Dawley rat at 2 mg/kg. To be noted: in vivo. The class given is ADME, organism-based.
The next data set has as its target CYP2D6 (Homo sapiens, UniProt P10635). The data set is described as follows: Inhibition of CYP2D6 (unknown origin) at 3 uM relative to control. The data set is classed as ADME.
Data set [14] is described as follows: Tmax in Sprague-Dawley rat at 2 mg/kg, po. The data set is classed as ADME, organism-based. Details: dose 2 mg/kg, route oral. To be noted: in vivo.
Data set [15] deals with Rattus norvegicus. The data set is described as follows: Unbound clearance in Sprague-Dawley rat at 1 mg/kg, iv. The data set is classed as ADME, organism-based. Details: dose 1 mg/kg, route intravenous. To be noted: in vivo.
The next data set concerns the target CYP3A4 (Homo sapiens, UniProt P08684). The data set is described as follows: Inhibition of CYP3A4 (unknown origin) at 3 uM relative to control. The class given is ADME.
Data set [16] concerns the target Voltage-gated inwardly rectifying potassium channel KCNH2 (Homo sapiens, UniProt Q12809). The data set is described as follows: Inhibition of dofetilide binding to human ERG.
The nature of data set [17]: Clearance in rat liver microsomes. The class given is ADME. To be noted: read-out: CLH. In general terms: Microsomes from liver hold many membrane-bound enzymes, among them those of drug oxidation.
Data set [18] in a line: Clearance in Sprague-Dawley rat at 1 mg/kg, iv. The class given is ADME, organism-based. Details: dose 1 mg/kg, route intravenous. To be noted: in vivo.
The target of the next data set is CYP2C9 (Homo sapiens, UniProt P11712). The data set is described as follows: Inhibition of CYP2C9 (unknown origin) at 3 uM relative to control. The data set is classed as ADME.
The target in a further data set is T5, CYP1A2 (Homo sapiens, UniProt P05177).
T5 sequence (P05177 whole entry): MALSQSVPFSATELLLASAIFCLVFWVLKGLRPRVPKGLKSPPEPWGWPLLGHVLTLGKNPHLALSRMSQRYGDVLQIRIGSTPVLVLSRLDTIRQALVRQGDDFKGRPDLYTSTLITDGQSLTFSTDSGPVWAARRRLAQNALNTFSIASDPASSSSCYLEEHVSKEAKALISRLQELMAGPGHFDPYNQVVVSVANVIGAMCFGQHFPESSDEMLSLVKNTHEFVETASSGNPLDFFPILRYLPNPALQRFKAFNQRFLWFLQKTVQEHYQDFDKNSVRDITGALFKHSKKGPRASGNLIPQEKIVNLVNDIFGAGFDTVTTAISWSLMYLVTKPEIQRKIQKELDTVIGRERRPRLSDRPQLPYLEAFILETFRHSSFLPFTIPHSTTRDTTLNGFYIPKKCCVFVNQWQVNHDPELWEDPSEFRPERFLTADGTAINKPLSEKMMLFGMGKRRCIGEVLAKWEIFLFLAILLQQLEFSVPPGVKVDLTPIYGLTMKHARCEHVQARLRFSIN
The data set is described as follows: Inhibition of CYP1A2 (unknown origin) at 3 uM relative to control. The data set is classed as ADME.

Data set [19] can be described thus: Half life in Sprague-Dawley rat at 1 mg/kg, iv. The data set is classed as ADME, organism-based. To be noted: in vivo. On the set-up: dose 1 mg/kg, route intravenous.
Data set [20] in a line: Lipophilicity, log D of the compound. The data set is classed as physicochemical. To be noted: octanol/water.
For data set [21], the target named is T1, Transient receptor potential cation channel subfamily V member 4. The data set is described as follows: Antagonist activity at human TRPV4.

A word on the IC50: it is the midpoint of a concentration-inhibition curve. As usually defined, the EC50 is the concentration giving half of the maximal effect. A word on the bioavailability: it is dose-corrected exposure relative to a reference, in per cent. Low readings indicate little systemic uptake, high ones much systemic uptake. As usually defined, the inhibition is the drop in the measured response relative to a control, in per cent. Low readings indicate a weak effect, high ones a strong effect. For orientation: Tmax means the time at which the peak concentration occurs. Broadly, the clearance is the volume of plasma or blood freed of the substance per unit of time. Read a low clearance as inefficient removal. In general, half-life refers to how long it takes for the measured level to halve. Higher therefore signals slow loss. What is called logD is the decadic logarithm of the distribution of all forms, ionised or not, between an organic phase and buffer at a given pH. Read a low logD as lower lipophilicity.

The structures appear in SMILES notation.

T2 sequence (O75762 whole entry): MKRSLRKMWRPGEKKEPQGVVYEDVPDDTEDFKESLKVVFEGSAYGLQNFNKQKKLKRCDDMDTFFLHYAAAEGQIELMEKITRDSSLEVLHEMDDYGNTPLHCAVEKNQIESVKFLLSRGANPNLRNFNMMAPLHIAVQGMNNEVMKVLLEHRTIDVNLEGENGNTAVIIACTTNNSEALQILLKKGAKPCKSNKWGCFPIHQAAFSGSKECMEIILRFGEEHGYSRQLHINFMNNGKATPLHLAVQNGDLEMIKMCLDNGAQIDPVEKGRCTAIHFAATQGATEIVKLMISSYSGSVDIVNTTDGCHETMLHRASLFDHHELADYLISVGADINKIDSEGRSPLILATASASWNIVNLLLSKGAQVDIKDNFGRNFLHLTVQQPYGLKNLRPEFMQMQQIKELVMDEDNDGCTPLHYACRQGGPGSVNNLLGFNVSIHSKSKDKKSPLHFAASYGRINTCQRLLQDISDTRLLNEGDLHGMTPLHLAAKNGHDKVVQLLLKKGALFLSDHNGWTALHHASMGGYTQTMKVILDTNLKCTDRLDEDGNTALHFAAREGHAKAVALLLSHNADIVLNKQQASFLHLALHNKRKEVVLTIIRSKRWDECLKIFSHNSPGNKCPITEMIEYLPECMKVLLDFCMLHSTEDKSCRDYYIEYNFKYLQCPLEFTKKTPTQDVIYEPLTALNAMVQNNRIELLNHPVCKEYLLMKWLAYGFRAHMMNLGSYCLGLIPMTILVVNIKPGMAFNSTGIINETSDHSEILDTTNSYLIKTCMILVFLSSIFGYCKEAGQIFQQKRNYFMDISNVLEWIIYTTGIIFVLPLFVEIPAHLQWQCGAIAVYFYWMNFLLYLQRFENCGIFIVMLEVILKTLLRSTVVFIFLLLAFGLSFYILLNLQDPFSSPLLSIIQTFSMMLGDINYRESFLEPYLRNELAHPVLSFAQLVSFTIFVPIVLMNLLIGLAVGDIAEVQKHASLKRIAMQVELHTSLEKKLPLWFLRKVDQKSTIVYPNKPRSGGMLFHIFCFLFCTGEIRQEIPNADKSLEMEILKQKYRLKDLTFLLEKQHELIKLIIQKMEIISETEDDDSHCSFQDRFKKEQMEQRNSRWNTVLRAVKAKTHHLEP

Consider `N#Cc1ccc(S(=O)(=O)N2CCC(O)(COc3ccc(C#N)c(F)c3)CC2)c(C#N)c1`, for which the IC50 in [1] came out at 50.5 nM.

Turning to `N#Cc1ccc(OCC2(O)CCN(S(=O)(=O)c3ccc(Cl)cc3Cl)CC2)cc1`, the IC50 in data set [2] was greater than 12500 nM; in data set [4], 1150 nM; in data set [1] it was 49.7 nM; in data set [8] it was 4800 nM; in [9], greater than 3900 nM. Also, the EC50 in [3] is greater than 1000 nM; in data set [5], greater than 12500 nM; in data set [6], greater than 20000 nM; in data set [7], greater than 1000 nM.

As for `N#Cc1ccc(S(=O)(=O)N2CC(O)(COc3ccc(C#N)c(Cl)c3)C2)c(Cl)c1`, the half-maximal inhibitory concentration (IC50) in data set [1] is 4 nM.

As for `N#Cc1ccc(OCC2(O)CCN(S(=O)(=O)c3ccc(Cl)cc3Cl)CC2)cc1F`, the IC50 in data set [1] was determined as 12.9 nM.

`N#Cc1ccc(OCC2(O)CN(S(=O)(=O)c3ccc(Cl)cc3Cl)C2)cc1F`: the Vd in [10] was 4.3 L/kg. In addition, the microsomal CLint was less than 8.1 µL/min/mg in data set [11] and 87 µL/min/mg in data set [17]. In addition, the fCmax with Rattus norvegicus [12] is given as 16 nM. In data set [13], this molecule returned a bioavailability of 73%. For the same molecule, the inhibition at 3 µM against CYP2D6, on CYP3A4, against CYP2C9 and at CYP1A2 was less than 20% throughout. In data set [14], the Tmax stood at 0.75 h. Further, the IC50 in data set [2] was greater than 12500 nM; in data set [4] it was 34.1 nM; in [16] it was 9670 nM; in data set [1] it was 3.8 nM; in data set [8], 9580 nM; in data set [9] it was greater than 16000 nM. The molecule also came in with a CL free with Rattus norvegicus [15] of 756 mL/min/kg. For the same molecule, the EC50 in data set [3] was greater than 1000 nM; in [5] it was greater than 12500 nM; in data set [6], greater than 20000 nM; in [7] it was greater than 1000 nM. The clearance in data set [18] was 23.5 mL/min/kg. The same molecule gave a half-life in [19] of 2.2 h. The molecule also yielded a logD in data set [20] of 3.2.

For the molecule `N#Cc1ccc(S(=O)(=O)N2CCC(O)(COc3ccc(C#N)c(F)c3)CC2)c(Cl)c1`, the IC50 in [1] turned out to be 49.1 nM.

For `N#Cc1ccc(OCC2(O)CN(S(=O)(=O)c3ccc(Cl)cc3C#N)C2)cc1Cl`, in [1], the IC50 came to 3.6 nM.

With `N#Cc1ccc(OCC2(O)CN(S(=O)(=O)c3ccc(Cl)cc3C#N)C2)cc1F`, the 50% inhibitory concentration (IC50) in data set [1] worked out at 3.4 nM.

In data set [21], `O=S(=O)(c1ccc(Cl)cc1Cl)N1CCC(O)(CSc2ccncc2)CC1` had an IC50 of 2200 nM.
